Measurements from patent US12692269B2, “Therapeutic compounds” (Genentech, Inc., priority 2019, dated 2026).

How the values were obtained:
Type in all cases: binding
TEAD1 YAP50-100 = TEAD1 YAP50-100 (Homo sapiens, UniProt P28347); test: TEAD1-YAP HTRF (TR-FRET) protein-protein interaction assay; settings: TEAD1, YAP peptide 50-100, HTRF; for EC50: read-out: TEAD1 YAP50-100 HTRF combined: EC50
Procedure, shortened: (§1)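 His-tagged TEAD YAP-binding domain (aa 217-447) pre-bound to Eu anti-His tracer, incubated with compound 30 min, then biotinylated YAP (aa 50-100) or TAZ (aa 13-57) peptide with streptavidin-XL665 added for 60 min at room temperature. TR-FRET read at 665/615 nm; IC50 or EC50 from four-parameter fit.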

TEAD2 YAP50-100 = TEAD2 YAP50-100 (Homo sapiens, UniProt Q15562); test: TEAD2-YAP HTRF (TR-FRET) protein-protein interaction assay; settings: TEAD2, YAP peptide 50-100, HTRF; for EC50: read-out: TEAD2 YAP50-100 HTRF combined: EC50
Sequence of TEAD2 YAP50-100 (Q15562 217-447): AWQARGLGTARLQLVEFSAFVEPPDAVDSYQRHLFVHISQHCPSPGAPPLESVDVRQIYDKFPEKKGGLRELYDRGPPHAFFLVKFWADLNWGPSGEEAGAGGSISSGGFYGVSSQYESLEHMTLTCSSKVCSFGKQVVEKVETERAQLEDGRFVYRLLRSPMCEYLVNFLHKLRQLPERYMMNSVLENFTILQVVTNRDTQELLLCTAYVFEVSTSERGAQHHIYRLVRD
Procedure, shortened: as §1

TEAD3 YAP50-100 = TEAD3 YAP50-100 (Homo sapiens, UniProt Q99594); test: TEAD3-YAP HTRF (TR-FRET) protein-protein interaction assay; settings: TEAD3, YAP peptide 50-100, HTRF; for EC50: read-out: TEAD3 YAP50-100 HTRF combined: EC50
Sequence of TEAD3 YAP50-100 (Q99594 173-435 limits assumed): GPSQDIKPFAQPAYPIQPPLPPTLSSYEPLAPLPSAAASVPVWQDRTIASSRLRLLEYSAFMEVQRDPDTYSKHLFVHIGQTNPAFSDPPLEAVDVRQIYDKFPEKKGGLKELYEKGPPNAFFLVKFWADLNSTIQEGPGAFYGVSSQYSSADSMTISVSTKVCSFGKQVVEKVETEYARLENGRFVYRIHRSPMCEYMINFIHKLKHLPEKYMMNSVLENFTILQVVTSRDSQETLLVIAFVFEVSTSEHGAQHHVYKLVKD
Procedure, shortened: as §1

TEAD4 YAP50-100 = TEAD4 YAP50-100 (Homo sapiens, UniProt Q15561); test: TEAD4-YAP HTRF (TR-FRET) protein-protein interaction assay; settings: TEAD4, YAP peptide 50-100, HTRF; for EC50: read-out: TEAD4 YAP50-100 HTRF combined: EC50
Sequence of TEAD4 YAP50-100 (Q15561 217-434 limits assumed): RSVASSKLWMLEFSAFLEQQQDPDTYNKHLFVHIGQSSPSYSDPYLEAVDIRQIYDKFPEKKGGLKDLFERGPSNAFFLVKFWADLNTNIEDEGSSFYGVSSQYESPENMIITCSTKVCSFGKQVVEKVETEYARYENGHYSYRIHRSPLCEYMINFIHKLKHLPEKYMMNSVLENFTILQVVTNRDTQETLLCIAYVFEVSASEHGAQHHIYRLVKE
Procedure, shortened: as §1

[1] = molecular target: TEAD1 TAZ (amino acids 13-57) (Homo sapiens, UniProt P28347); test: TEAD1-TAZ HTRF (TR-FRET) protein-protein interaction assay; settings: for TEAD1 TAZ HTRF combined: Max % Inhibition: TEAD1, TAZ peptide; for EC50: TEAD1-TAZ HTRF, TR-FRET 665 nm/615 nm, read-out: TEAD1 TAZ HTRF combined: EC50
Sequence of TEAD1 TAZ (amino acids 13-57) (P28347 167-426 limits assumed): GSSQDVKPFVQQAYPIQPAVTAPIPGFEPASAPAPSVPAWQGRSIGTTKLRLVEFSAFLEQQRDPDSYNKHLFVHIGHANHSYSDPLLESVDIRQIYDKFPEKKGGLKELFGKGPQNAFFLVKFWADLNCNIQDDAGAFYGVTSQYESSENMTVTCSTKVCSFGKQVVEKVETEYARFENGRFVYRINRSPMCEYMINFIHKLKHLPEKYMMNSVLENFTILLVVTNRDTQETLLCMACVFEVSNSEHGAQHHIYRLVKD
Procedure, shortened: as §1

[2] = molecular target: TEAD2 TAZ (amino acids 13-57) (Homo sapiens, UniProt Q15562); test: TEAD2-TAZ HTRF (TR-FRET) protein-protein interaction assay; settings: for TEAD2 TAZ HTRF combined: Max % Inhibition: TEAD2, TAZ peptide; for EC50: TEAD2-TAZ HTRF, TR-FRET 665 nm/615 nm, read-out: TEAD2 TAZ HTRF combined: EC50
Sequence of TEAD2 TAZ (amino acids 13-57) (Q15562 217-447): as the sequence (Q15562 217-447) above
Procedure, shortened: as §1

[3] = molecular target: TEAD3 TAZ (amino acids 13-57) (Homo sapiens, UniProt Q99594); test: TEAD3-TAZ HTRF (TR-FRET) protein-protein interaction assay; settings: for TEAD3 TAZ HTRF combined: Max % Inhibition: TEAD3, TAZ peptide; for EC50: TEAD3-TAZ HTRF, TR-FRET 665 nm/615 nm, read-out: TEAD3 TAZ HTRF combined: EC50
Sequence of TEAD3 TAZ (amino acids 13-57) (Q99594 173-435 limits assumed): as the sequence (Q99594 173-435 limits assumed) above
Procedure, shortened: as §1

[4] = molecular target: TEAD4 TAZ (amino acids 13-57) (Homo sapiens, UniProt Q15561); test: TEAD4-TAZ HTRF (TR-FRET) protein-protein interaction assay; settings: for TEAD4 TAZ HTRF combined: Max % Inhibition: TEAD4, TAZ peptide; for EC50: TEAD4-TAZ HTRF, TR-FRET 665 nm/615 nm, read-out: TEAD4 TAZ HTRF combined: EC50
Sequence of TEAD4 TAZ (amino acids 13-57) (Q15561 217-434 limits assumed): as the sequence (Q15561 217-434 limits assumed) above
Procedure, shortened: as §1

Sequence of TEAD1 YAP50-100 (P28347 167-426 limits assumed): as the sequence (P28347 167-426 limits assumed) above

Structure (SMILES)	TEAD1 YAP50-100 HTRF combined: Max % Inhibition (TEAD1 YAP50-100) [%]	EC50 (TEAD1 YAP50-100) [nM]	TEAD2 YAP50-100 HTRF combined: Max % Inhibition (TEAD2 YAP50-100) [%]	EC50 (TEAD2 YAP50-100) [nM]	TEAD3 YAP50-100 HTRF combined: Max % Inhibition (TEAD3 YAP50-100) [%]	EC50 (TEAD3 YAP50-100) [nM]	TEAD4 YAP50-100 HTRF combined: Max % Inhibition (TEAD4 YAP50-100) [%]	EC50 (TEAD4 YAP50-100) [nM]	TEAD1 TAZ HTRF combined: Max % Inhibition [1] [%]	EC50 [1] [nM]	TEAD2 TAZ HTRF combined: Max % Inhibition [2] [%]	EC50 [2] [nM]	TEAD3 TAZ HTRF combined: Max % Inhibition [3] [%]	EC50 [3] [nM]	TEAD4 TAZ HTRF combined: Max % Inhibition [4] [%]	EC50 [4] [nM]
CC(C)c1ccc(COc2cc(=O)n3nc(-c4cnccn4)c(C(=O)N4CC(CF)C4)c3[nH]2)cc1 [Compound 52, 3-(3-(Fluoromethyl)azetidine-1-carbonyl)-5-((4-isopropylbenzyl)oxy)-2-(pyrazin-2-yl)pyrazolo[1,5-a]primidin-7(4H)-one]	70.0	50	68.0	20	57.0	150	66.0	180	62.0	60	69.0	20	48.0	180	58.0	150
Cc1nccnc1-c1nn2c(=O)cc(-c3ccc(O[C@H](c4ccccc4)C(F)(F)F)cc3)[nH]c2c1C(=O)N1CC(CF)C1 [Compound 68, (R)-3-(3-(Fluoromethyl)azetidine-1-carbonyl)-2-(3-methylpyrazin-2-yl)-5-(4-(2,2,2-trifluoro-1-phenylethoxy)phenyl)pyrazolo[1,5-a]pyrimidin-7(4H)-one]	65.0	190	84.0	60	67.5	510	64.5	5550	63.0	270	75.5	60	64.5	590	61.5	4950
Cc1ccnc(-c2nn3c(=O)cc(-c4ccc(C5CCCCC5)cc4)[nH]c3c2C(=O)N2CC(CF)C2)c1 [Compound 18, 5-(4-Cyclohexylphenyl)-3-(3-(fluoromethyl)azetidine-1-carbonyl)-2-(4-methylpvridin-2-yl)pyrazolo[1,5-a]pyrimidin-7(4H)-one]	73.0	50	58.5	10	54.5	90	47.0	20	67.0	60	55.5	10	43.0	90	49.0	20
C[C@@H]1[C@H](CF)CN1C(=O)c1c(-c2cnccn2)nn2c(=O)cc(-c3ccc(C4CCCCC4)cc3)[nH]c12 (single isomer, unassigned) [Isomer B, Example 39]	62.0	170	17.5	170	67.0	2450	46.0	6450	55.0	170	37.0	190	68.0	2500	49.5	6200
